Experimental data taken from ChEMBL document CHEMBL1130870, “C6 modification of the pyridinone core of thrombin inhibitor L-374,087 as a means of enhancing its oral absorption” (Bioorg Med Chem Lett, 1998).

How the values were obtained:
[1] = molecular target: Prothrombin (Homo sapiens, UniProt P00734); test: Compound was evaluated to inhibit the thrombin enzyme
[2] = molecular target: Serine protease 1 (Homo sapiens, UniProt P07477); test: Compound was evaluated to inhibit the trypsin enzyme
[3] = Partition coefficient (logP); type: physicochemical; conditions: octanol/water
[4] = Compound was evaluated for its anticoagulant and antithrombotic activity by measuring the clotting parameter in human plasma; type: functional
[5] = species: Homo sapiens; test: Compound was evaluated for its anticoagulant and antithrombotic activity by measuring the %protein binding in human plasma; type: functional, cell-free
[6] = species: Rattus norvegicus; test: Compound was evaluated for its anticoagulant and antithrombotic activity by measuring the final plasma concentration in rat plasma; type: functional, organism-based
[7] = Bioavailability as Vdss in dogs at 1 mg/kg intravenous dose; type: ADME, organism-based, Canis lupus familiaris; conditions: dog, in vivo, read-out: Vdss
[8] = (§1) Compound was evaluated for half-life period in dogs at a dose of 5 mpk perorally; type: ADME, organism-based, Canis lupus familiaris; conditions: dog, in vivo, po, 5 mg/kg
[9] = Bioavailability as Cmax in dogs at 5 mg/kg oral dose; type: ADME, organism-based, Canis lupus familiaris; design: dose 5 mg/kg, route oral; conditions: dog, in vivo
[10] = Compound was evaluated for area under curve (total concentration) in dogs at a dose of 1 mpk perorally; type: ADME, organism-based, Canis lupus familiaris; conditions: dog, in vivo, po, 1 mg/kg
[11] = Compound was evaluated for area under curve (total concentration) in dogs at a dose of 5 mpk perorally; type: ADME, organism-based, Canis lupus familiaris; conditions: dog, in vivo, po, 5 mg/kg
[12] = Compound was evaluated for Clearance in dogs at a dose of 1 mpk intravenously; type: ADME, organism-based, Canis lupus familiaris; conditions: dog, in vivo, iv, 1 mg/kg; read-out: CI
[13] = species: Rattus norvegicus; test: Compound was evaluated for its anticoagulant and antithrombotic activity by measuring the clotting parameter in rat plasma; type: functional
[14] = species: Rattus norvegicus; test: Compound was evaluated for its anticoagulant and antithrombotic activity by measuring the %protein binding in rat plasma; type: functional, organism-based
[15] = species: Canis familiaris; test: as §1; type: ADME, organism-based, Canis lupus familiaris; conditions: dog, in vivo, po, 5 mg/kg

Chain of Serine protease 1 (P07477 whole entry): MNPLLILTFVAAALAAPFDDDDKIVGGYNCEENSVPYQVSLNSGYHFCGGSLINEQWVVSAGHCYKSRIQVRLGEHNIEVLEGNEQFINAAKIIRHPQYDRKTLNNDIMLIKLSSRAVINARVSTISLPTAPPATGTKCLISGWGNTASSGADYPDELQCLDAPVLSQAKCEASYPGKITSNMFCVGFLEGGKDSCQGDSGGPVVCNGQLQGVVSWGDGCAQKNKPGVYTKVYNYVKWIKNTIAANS

Compound | Ki [1] | Ki [2] | logP [3] | PPB [5] | Vd [7] | half-life [8] | Cmax [9] | AUC [10] | AUC [11] | clearance [12] | PPB [14] | T1/2 [15] | 2x APTT [4] | Plasma concentration [6] | 2x APTT [13]
Cc1nc(N)ccc1CNC(=O)Cn1c(C(F)(F)F)ccc(NS(=O)(=O)Cc2ccccc2)c1=O | 12 nM | 2500 nM | – | – | – | – | – | – | – | – | – | – | – | – | –
Cc1nc(N)ccc1CNC(=O)Cn1c(C2CC2)ccc(NS(=O)(=O)Cc2ccc(Cl)cc2)c1=O | 4 nM | 1900 nM | 1.98 | 94% | – | – | – | – | – | – | – | – | 1.43 µM | 0.347 µM | –
Cc1nc(N)ccc1CNC(=O)Cn1c(C2CC2)ccc(NS(=O)(=O)Cc2ccccc2)c1=O | 16 nM | 1700 nM | – | – | – | – | – | – | – | – | – | – | – | – | –
Cc1nc(N)ccc1CNC(=O)Cn1c(C)ccc(NS(=O)(=O)Cc2ccccc2)c1=O [L-374087] | – | – | 0.69 | 78% | 0.46 L/kg | – | 5.31 µM | 9.92 µM·h | 18.8 µM·h | 3.8 mL/min/kg | 47% | 2.52 h | 0.22 µM | 0.586 µM | 0.25 µM

Continued by falling Ki [1], values first:

Ki [1] | Ki [2] | logP [3] | PPB [5] | Vd [7] | half-life [8] | Cmax [9] | AUC [10] | AUC [11] | clearance [12] | PPB [14] | T1/2 [15] | Compound | 2x APTT [4] | Plasma concentration [6] | 2x APTT [13]
2.6 nM | 3400 nM | – | – | – | – | – | – | – | – | – | – | Cc1nc(N)ccc1CNC(=O)Cn1c(C(F)(F)F)ccc(NS(=O)(=O)Cc2ccc(Cl)cc2)c1=O | – | – | –
0.85 nM | 1400 nM | 1.52 | 88% | 0.54 L/kg | 3.15 h | 9.46 µM | 5.93 µM·h | 40.6 µM·h | 5.82 mL/min/kg | 75% | – | CCCc1ccc(NS(=O)(=O)Cc2ccccc2)c(=O)n1CC(=O)NCc1ccc(N)nc1C | 0.32 µM | 0.389 µM | 0.4 µM
0.12 nM | 2600 nM | – | – | – | – | – | – | – | – | – | – | Cc1nc(N)ccc1CNC(=O)Cn1c(C)ccc(NS(=O)(=O)Cc2ccc(Cl)cc2)c1=O | – | – | –
